Measured values reported in patent US9115116B2, “Dual action inhibitors against histone deacetylases and 3-hydroxy-3-methylglutaryl coenzyme a reductase” (Academia Sinica, priority 2013, dated 2015).
Read-outs that look alike come from different tables or passages of the source.

Legend:
HMGR = HMGR (Homo sapiens (Human), UniProt P04035); test: HMG-CoA reductase (HMGR) activity assay, recombinant protein; assay type: biochemical; conditions: for IC50: mean ± SD of three experiments
Excerpt: HMG-CoA Reductase (HMGR) Activity Assay.

[1] = system: acetylation of histone H3 in A549 lung cancer cells; test: Western blot analysis of histone acetylation in A549 cells; assay type: cell-based, human; conditions: SAHA at 5 μM
Description: (§1) After treated with test compounds (i.e., compounds of example 1), cells were lysed on ice, and cell lysates were collected and subjected to SDS-PAGE. Immunoblotting was performed using specific antibodies to evaluate the expression of proteins.
(§2) The intracellular histone acetylation status is a direct indicator for class I HDAC inhibition, whereas α-tubulin is the substrate of class II HDAC (i.e., HDAC 6).

[2] = system: acetylation of α-tubulin in A549 cells; test: Western blot analysis of tubulin acetylation in A549 cells; assay type: cell-based, human; conditions: SAHA at 5 μM
Description: as §1, §2

[3] = molecular target: HMGR activity in A549 lung cancer cells (Homo sapiens (Human), UniProt P04035); test: HMGR activity in whole cell lysates of treated A549 lung cancer cells; conditions: 1-50 μM, 24 h
HMGR activity in A549 lung cancer cells, sequence (P04035 whole entry): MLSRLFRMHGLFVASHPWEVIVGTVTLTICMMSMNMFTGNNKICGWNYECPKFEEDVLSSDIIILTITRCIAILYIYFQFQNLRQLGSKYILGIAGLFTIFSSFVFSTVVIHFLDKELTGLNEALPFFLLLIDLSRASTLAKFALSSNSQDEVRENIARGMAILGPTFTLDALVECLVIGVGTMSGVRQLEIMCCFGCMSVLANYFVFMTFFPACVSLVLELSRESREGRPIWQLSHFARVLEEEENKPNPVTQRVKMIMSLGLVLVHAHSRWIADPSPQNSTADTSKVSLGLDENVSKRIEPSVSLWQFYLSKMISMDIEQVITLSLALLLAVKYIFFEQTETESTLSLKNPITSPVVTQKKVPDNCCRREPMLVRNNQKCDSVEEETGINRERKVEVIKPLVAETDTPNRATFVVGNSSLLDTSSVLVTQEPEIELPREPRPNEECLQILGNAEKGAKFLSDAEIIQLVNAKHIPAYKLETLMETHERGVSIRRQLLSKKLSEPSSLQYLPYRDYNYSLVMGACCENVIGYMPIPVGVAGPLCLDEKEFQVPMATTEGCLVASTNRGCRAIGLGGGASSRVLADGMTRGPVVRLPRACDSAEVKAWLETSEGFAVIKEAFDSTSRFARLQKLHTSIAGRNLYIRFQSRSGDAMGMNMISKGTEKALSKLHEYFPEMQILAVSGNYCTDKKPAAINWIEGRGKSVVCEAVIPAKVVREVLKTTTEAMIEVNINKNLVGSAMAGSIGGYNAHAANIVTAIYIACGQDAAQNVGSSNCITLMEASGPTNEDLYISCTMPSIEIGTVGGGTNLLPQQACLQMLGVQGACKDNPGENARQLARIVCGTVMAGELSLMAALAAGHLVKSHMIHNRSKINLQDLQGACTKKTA
Description: A549 cells were cultured in Dulbecco's modified Eagle's medium (DMEM) in a humidified incubator containing 5% CO2/95% air.
The HMGR activity was performed using HMG-CoA reductase assay kit from Sigma-Aldrich with the human recombinant protein or 100 μg total cell lysates from A549 cells. […] HMGR activity under defined assay conditions, containing NADPH and HMG-CoA substrate in a final volume of 0.2 mL of 100 mM potassium phosphatate buffer (120 mM KCI, 1 mM EDTA, 5 mM DTT, pH 7.4), were initiated in the presence or absence (control) of test compounds dissolved in dimethylsulfoxide (DMSO). The rates of NADPH consumption were monitored every 20 seconds, for up to 10 minutes, by spectrophotometer at 37° C. and 340 nm. The HMGR activity was calculated as a percentage of activity compared with the control group at 5 min. The IC50 values were calculated from software SigmaPlot.

HDAC1 = HDAC1 (Homo sapiens (Human), UniProt Q13547); test: HDAC fluorescent activity assay (HDAC1); assay type: biochemical
HDAC1, sequence (Q13547 whole entry, species assumed): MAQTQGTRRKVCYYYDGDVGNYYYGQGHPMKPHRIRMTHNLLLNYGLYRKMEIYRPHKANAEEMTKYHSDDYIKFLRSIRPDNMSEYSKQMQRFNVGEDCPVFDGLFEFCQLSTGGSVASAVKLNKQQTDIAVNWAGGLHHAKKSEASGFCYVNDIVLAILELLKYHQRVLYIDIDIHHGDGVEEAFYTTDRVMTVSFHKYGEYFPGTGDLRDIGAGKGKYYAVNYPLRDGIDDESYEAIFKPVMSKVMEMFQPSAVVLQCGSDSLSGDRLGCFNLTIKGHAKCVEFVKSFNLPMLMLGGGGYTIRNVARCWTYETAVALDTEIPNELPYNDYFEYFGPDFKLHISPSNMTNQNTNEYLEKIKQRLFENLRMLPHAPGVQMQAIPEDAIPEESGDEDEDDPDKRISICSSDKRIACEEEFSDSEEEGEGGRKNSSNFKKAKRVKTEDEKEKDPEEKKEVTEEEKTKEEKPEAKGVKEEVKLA
Description: (§3) The HDAC activity was performed using the HDAC fluorescent activity assay kit (BIOMOL, Plymouth Meeting, Pa., USA) according to the manufacturer's instructions. Briefly, recombinant proteins of HDAC1 or HDAC6 were incubated with test compounds, and HDAC reaction was initiated by addition of Fluor-de-Lys substrate. Samples were incubated for 10 min at room temperature, followed by adding developer to stop the reaction. Fluorescence was measured by fluorometric reader with excitation at 360 nm and emission at 460 nm. The HDAC activity was expressed as arbitrary fluorescence units (AFU). […] The half maximal inhibitory concentration (IC50) values for the test compounds were calculated from software SigmaPlot.

HDAC2 = HDAC2 (Homo sapiens (Human), UniProt Q92769); test: HDAC fluorescent activity assay (HDAC2); assay type: biochemical
HDAC2, sequence (Q92769 whole entry, species assumed): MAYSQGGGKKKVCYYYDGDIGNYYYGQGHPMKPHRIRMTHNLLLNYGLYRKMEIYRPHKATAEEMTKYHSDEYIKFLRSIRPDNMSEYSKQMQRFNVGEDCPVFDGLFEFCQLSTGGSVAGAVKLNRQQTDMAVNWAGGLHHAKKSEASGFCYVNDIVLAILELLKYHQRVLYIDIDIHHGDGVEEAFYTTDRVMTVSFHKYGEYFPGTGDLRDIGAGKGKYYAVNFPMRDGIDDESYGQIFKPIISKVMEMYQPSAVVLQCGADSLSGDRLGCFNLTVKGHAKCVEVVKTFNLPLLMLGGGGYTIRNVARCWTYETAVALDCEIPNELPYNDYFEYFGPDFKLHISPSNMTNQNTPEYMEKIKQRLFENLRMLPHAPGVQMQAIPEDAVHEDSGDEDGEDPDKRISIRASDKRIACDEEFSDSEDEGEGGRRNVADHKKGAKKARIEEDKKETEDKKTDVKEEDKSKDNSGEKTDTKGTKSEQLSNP

HDAC6 = HDAC6 (Homo sapiens (Human), UniProt Q9UBN7); test: HDAC fluorescent activity assay (HDAC6); assay type: biochemical; conditions: mean ± SD of three experiments
HDAC6, sequence (Q9UBN7 whole entry, species assumed): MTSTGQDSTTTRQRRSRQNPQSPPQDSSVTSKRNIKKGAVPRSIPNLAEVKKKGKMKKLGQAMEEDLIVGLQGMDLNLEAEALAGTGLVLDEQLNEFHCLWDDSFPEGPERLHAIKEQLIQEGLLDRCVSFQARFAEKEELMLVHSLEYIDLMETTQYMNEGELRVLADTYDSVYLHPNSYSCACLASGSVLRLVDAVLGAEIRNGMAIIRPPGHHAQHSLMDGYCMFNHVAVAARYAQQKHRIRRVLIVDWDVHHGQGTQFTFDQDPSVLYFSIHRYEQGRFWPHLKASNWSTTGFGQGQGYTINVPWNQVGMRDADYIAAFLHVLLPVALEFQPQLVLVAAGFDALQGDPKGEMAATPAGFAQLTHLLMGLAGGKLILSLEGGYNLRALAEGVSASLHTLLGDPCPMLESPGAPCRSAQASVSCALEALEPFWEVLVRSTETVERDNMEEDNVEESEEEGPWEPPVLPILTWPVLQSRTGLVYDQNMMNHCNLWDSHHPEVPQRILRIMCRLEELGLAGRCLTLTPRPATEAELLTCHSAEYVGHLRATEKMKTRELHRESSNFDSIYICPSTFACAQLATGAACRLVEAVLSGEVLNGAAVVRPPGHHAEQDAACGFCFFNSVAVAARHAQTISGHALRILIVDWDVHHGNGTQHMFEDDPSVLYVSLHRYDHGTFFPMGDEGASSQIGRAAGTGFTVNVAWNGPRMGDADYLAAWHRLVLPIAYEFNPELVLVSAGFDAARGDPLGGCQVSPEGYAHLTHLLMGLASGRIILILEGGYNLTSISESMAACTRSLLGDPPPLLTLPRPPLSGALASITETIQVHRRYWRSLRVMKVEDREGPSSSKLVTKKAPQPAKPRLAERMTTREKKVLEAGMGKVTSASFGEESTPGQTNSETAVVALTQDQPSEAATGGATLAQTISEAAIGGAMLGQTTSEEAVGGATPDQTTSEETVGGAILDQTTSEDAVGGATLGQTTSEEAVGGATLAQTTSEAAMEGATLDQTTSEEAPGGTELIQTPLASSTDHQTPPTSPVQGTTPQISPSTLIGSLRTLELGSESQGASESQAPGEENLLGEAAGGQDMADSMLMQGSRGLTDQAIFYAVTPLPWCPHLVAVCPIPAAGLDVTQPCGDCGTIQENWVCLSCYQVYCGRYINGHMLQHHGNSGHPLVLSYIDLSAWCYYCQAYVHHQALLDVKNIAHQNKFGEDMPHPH
Description: as §3

HMGR, sequence (P04035 426-888 limits assumed): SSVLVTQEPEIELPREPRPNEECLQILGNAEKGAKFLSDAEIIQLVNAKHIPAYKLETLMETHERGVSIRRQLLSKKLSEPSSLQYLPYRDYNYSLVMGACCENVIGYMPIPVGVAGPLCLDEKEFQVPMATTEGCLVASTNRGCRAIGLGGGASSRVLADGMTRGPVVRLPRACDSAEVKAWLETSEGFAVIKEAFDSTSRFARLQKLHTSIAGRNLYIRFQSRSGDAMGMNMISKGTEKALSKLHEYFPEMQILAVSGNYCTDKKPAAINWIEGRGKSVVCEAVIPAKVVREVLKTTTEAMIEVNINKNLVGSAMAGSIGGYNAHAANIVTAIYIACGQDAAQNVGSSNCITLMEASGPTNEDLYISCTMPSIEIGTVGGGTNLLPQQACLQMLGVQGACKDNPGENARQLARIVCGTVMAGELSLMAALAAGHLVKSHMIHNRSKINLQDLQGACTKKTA

| reduction of HMGR activity in whole cell lysates (in words) [3] | SMILES | inhibition of HMGR activity (in words) (HMGR; enzyme assay, any dose) | histone acetylation (Western blot) [1] | tubulin acetylation (Western blot) [2] | IC50 (HDAC1) | IC50 (HDAC2) | IC50 (HDAC6) | IC50 (HMGR) | IC50 (HDAC1; mean ± SD of three experiments) | IC50 (HDAC2; mean ± SD of three experiments) |
| --- | --- | --- | --- | --- | --- | --- | --- | --- | --- | --- |
| failed to inhibit HMGR at any dose | O=C(CCCCCCC(=O)Nc1ccccc1)NO [SAHA, suberanilohydroxamic acid, reference compound] | no inhibition on HMGR activity at any dose | markedly induced | markedly induced | – | – | – | – | – | – |
| – | C[C@H]1C=C2C=C[C@H](C)[C@H](CC[C@@H]3C[C@@H](O[Si](C)(C)C(C)(C)C)CC(=O)O3)[C@H]2[C@@H](OC(=O)NCc2ccc(-c3cn(CCCCCCC(=O)NO)nn3)cc2)C1 [8b, (4R,6R)-6-(2-{(1S,2S,6R,8S,8aR)-8-[(4-{1-[7-(Hydroxyamino)-7-oxoheptyl]-1H-1,2,3-triazol-4-yl}benzyl)carbamoyloxy]-2,6-dimethyl-1,2,6,7,8,8a-hexahydronaphthyl}ethyl)-4-tert-butyldimethylsilyloxy-3,4,5,6-tetrahydro-2H-pyran-2-one] | – | promoted histone and tubulin acetylation in a dose dependent manner | promoted histone and tubulin acetylation in a dose dependent manner | 125 ± 6.3 nM | 882 ± 9.7 nM | 34 ± 4.3 nM | – | – | – |
| – | CC[C@H](C)C(=O)O[C@H]1C[C@@H](C)C=C2C=C[C@H](C)[C@H](CC[C@@H]3C[C@@H](O)CC(=O)O3)[C@H]21 [lovastatin, reference compound] | – | no effect | no effect | – | – | – | – | – | – |
| – | C#Cc1ccc(CNC(=O)O[C@H]2C[C@@H](C)C=C3C=C[C@H](C)[C@H](CC[C@@H]4C[C@@H](O[Si](C)(C)C(C)(C)C)CC(=O)O4)[C@H]32)cc1 [6b, (4R,6R)-6-(2-{(1S,2S,6R,8S,8aR)-8-[(4-Ethynylbenzyl)carbamoyloxy]-2,6-dimethyl-1,2,6,7,8,8a-hexahydronaphthyl}ethyl)-4-tert-butyldimethylsilyloxy-3,4,5,6-tetrahydro-2H-pyran-2-one] | – | – | – | – | – | 34 ± 4.3 nM | 53.8 ± 5.2 nM | 125 ± 6.3 nM | 882 ± 9.7 nM |
| – | C[C@H]1C=C2C=C[C@H](C)[C@H](CC[C@@H]3C[C@@H](O[Si](C)(C)C(C)(C)C)CC(=O)O3)[C@H]2[C@@H](OC(=O)NCCCCCCC(=O)NO)C1 [12a, (4R,6R)-6-[2-((1S,2S,6R,8S,8aR)-8-{[7-(Hydroxyamino)-7-oxoheptyl]carbamoyloxy}-2,6-dimethyl-1,2,6,7,8,8a-hexahydronaphthyl)ethyl]-4-tert-butyldimethylsilyloxy-3,4,5,6-tetrahydro-2H-pyran-2-one] | – | – | – | – | – | 140 ± 5.7 nM | – | 122 ± 12.7 nM | 658 ± 21.1 nM |
| – | C#Cc1ccc(NC(=O)O[C@H]2C[C@@H](C)C=C3C=C[C@H](C)[C@H](CC[C@@H]4C[C@@H](O[Si](C)(C)C(C)(C)C)CC(=O)O4)[C@H]32)cc1 [6a, (4R,6R)-6-(2-{(1 S,2S,6R,8S,8aR)-8-[(4-ethynylphenyl)carbamoyloxy]-2,6-dimethyl-1,2,6,7,8,8a-hexahydronaphthyl}ethyl)-4-tert-butyldimethylsilyloxy-3,4,5,6-tetrahydro-2H-pyran-2-one] | – | – | – | 159 ± 8.4 nM | 463 ± 28 nM | 127 ± 21.5 nM | 36.5 ± 5.3 nM | – | – |
| – | C[C@H]1C=C2C=C[C@H](C)[C@H](CC[C@@H]3C[C@@H](O[Si](C)(C)C(C)(C)C)CC(=O)O3)[C@H]2[C@@H](OC(=O)Nc2ccc(-c3cn(CCCCCCC(=O)NO)nn3)cc2)C1 [8a, (4R,6R)-6-(2-{(1S,2S,6R,8S,8aR)-8-[(4-{1-[7-(Hydroxyamino)-7-oxoheptyl]-1H-1,2,3-triazol-4-yl}phenyl)carbamoyloxy]-2,6-dimethyl-1,2,6,7,8,8a-hexahydronaphthyl}ethyl)-4-tert-butyldimethylsilyloxy-3,4,5,6-tetrahydro-2H-pyran-2-one] | – | promoted histone and tubulin acetylation in a dose dependent manner | promoted histone and tubulin acetylation in a dose dependent manner | 159 ± 8.4 nM | 463 ± 28 nM | 127 ± 21.5 nM | – | – | – |
